This is an account of results in paper PMC6015222, “Targeting Phosphopeptide Recognition by the Human BRCA1 Tandem BRCT Domain to Interrupt BRCA1-Dependent Signaling” (Cell Chemical Biology, 2018).

One data set concerns the target T1, TOPBP1 tBRCT 7/8 (Homo sapiens, UniProt Q92547).
T1 construct: TOPBP1 tBRCT 7/8 residues 1264–1493; made in house; host or cells: E. coli BL21(DE3*)
Nature of the data set: Competitive MST selectivity: TOPBP1 7/8. In kind it is binding. On the procedure:
(§1) Protein domains used in the assay were labeled with NT-647-NHS fluorescent dye using the Monolith NT™ Protein Labeling Kit (NanoTemper Technologies). Assays were carried out in 20mM Tris buffer, pH 7.4, with 200mM NaCl, 0.05% Tween-20 and 2mM DTT. For the direct binding assay, 10μl of labeled protein at a final concentration of 20nM was mixed with 10μl of test compound and incubated on ice for 10 min. For the competitive assay, 10μl of labeled protein at a final concentration of 20nM was mixed with 2μM cognate peptide substrate at the EC80 concentration determined by prior titration using a 16-point serial dilution by direct-binding MST. For both assays, samples prepared as above were centrifuged at 15000 rpm at 4°C for 10 min and 4μl of the supernatant was loaded into premium glass capillaries (NanoTemper Technologies). MST analysis was performed at MST power of 40% and LED power of 80%, at 22°C temperature using a Monolith NT.115 (NanoTemper Technologies). An initial “Capillary Scan” was performed to scan for fluorescence across the length of the capillary tray to determine the exact position of each capillary before the MST measurement was started. Test compounds were assayed at 16 different concentrations by serial dilution, and data were analysed using NanoTemper analysis software. Kd values were determined using “T-jump + Thermophoresis” settings. […]

The target in the next data set is T2, ECT2 BRCT (Homo sapiens, UniProt Q9H8V3).
T2 construct: ECT2 BRCT residues 22-326; 6x His (N); made in house; host or cells: E. coli C41(DE3)
T2 sequence (Q9H8V3 22-326 isoform Q9H8V3-4): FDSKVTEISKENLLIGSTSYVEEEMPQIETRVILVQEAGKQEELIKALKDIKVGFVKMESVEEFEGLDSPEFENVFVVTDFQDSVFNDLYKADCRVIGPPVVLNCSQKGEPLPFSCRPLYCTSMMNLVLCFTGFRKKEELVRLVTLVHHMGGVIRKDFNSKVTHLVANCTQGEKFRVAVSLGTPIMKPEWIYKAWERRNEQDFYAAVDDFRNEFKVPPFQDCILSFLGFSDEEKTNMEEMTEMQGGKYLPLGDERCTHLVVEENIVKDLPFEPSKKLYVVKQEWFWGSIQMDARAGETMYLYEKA
The data set can be described thus: Competitive MST selectivity: ECT2. In kind it is binding. As to the method: as §1

Another data set deals with T3, TOPBP1 BRCT 1/2 (Homo sapiens, UniProt Q92547).
T3 construct: TOPBP1 BRCT 1/2 residues 1-290; 6x His (N); made in house; host or cells: E. coli BL21(DE3)
Nature of the data set: Competitive MST selectivity: TOPBP1 1/2. In kind it is binding. On the procedure: as §1

The test system of the next data set is MDC1 foci. Nature of the data set: Radiation-induced nuclear MDC1 foci, HEK293 cells. Conditions: 100 μM added 6 hr after 16 Gy. In kind it is cell-based, human. On the procedure:
HEK293 cells stably harboring plasmids for Tet-inducible expression of tBRCT domains were seeded at 30,000 cells/well on Matrigel-coated 96-well plates, and treated as indicated. Cells were fixed in 2.5% PFA, for 20’ at RT and incubated in 1x PBS with 10% FBS plus 0.5% TritonX-100 for 1 h for blocking and permeabilization. Primary antibody staining was performed at the indicated dilutions in PBST-BSA buffer (0.7mg/ml BSA, 0.05% Tween-20 in 1XPBS) for 1h at RT. Cells were then extensively washed in PBST-BSA buffer and stained with goat-anti-mouse Alexa 488 secondary antibody (Invitrogen), at 1:1000 dilution along with 2.5μg/ml DAPI for nuclear staining. […] Images were acquired on a high-content imaging platform (Cellomics ArrayScan VTI HCS Reader (Thermo Fisher Scientific)) using a 40x objective. On average ∼800 fields from 6-well replicates, containing a total of ∼10-20K cells were imaged per treatment group and quantified using image analysis software (in-house algorithms using MatLab and commercially available HCS studio 2.0 from Thermo Fisher Scientific). […] Cut-off values for foci number per cell specifying the maximal difference between control and irradiated samples were determined to calculate the percentage of cells positive for radiation-induced foci. […]

A further data set concerns HEK293 cells. The data set can be described thus: Cell viability after 1 Gy irradiation (calcein AM dye and cell counting). In kind it is cell-based, human. The following applies: 1–100 μM added 1 hr before 1 Gy, viability 7 days later. On the procedure:
HEK293 cells stably harboring plasmids for Tet-inducible expression of tBRCT domains were seeded at a density of 60,000 cells/35mm dish. Compound addition or inducible expression of BRCA1 tBRCT were performed as indicated, when cells were ∼30% confluent, before exposure to 1Gy irradiation. Cells were replenished with media every 3rd day for 7 days, re-suspended in cell dissociation buffer, which was neutralized in 1x PBS. Cells were mixed thoroughly to ensure single cell suspension before measurement of viability using Calcein AM dye and/or cell counting with a hemocytometer. Cell survival fractions were measured using fluorescence readout of Calcein AM with the Tecan Infinite M1000 Pro reader (485nm excitation and 515nm emission) and data were normalized to untreated controls across treatment groups.

Each structure is given as a SMILES string.

As to `O=C(c1ccc2nc(-c3ccccc3)[nH]c2c1)N1CCN(Cc2ccccc2F)CC1` [Bractoppin, (4-(2-fluorobenzyl)piperazin-1-yl) (2-phenyl-1H-benzo[d]imidazol-6-yl) methanone], the “binding to fluorescently labeled TOPBP1 7/8 tBRCT domain” value at TOPBP1 tBRCT 7/8 is “does not detectably bind”. Also, the “binding to fluorescently labeled ECT2 tBRCT domain” value on ECT2 BRCT is “does not detectably bind”. For the same compound, at TOPBP1 BRCT 1/2, the “binding to fluorescently labeled TOPBP1 1/2 tBRCT domain” value is “does not detectably bind”. Further, in the data set with MDC1 foci, the “effect on radiation-induced accumulation of MDC1 at sites of DNA damage” value is listed as “little effect”. Moreover, the “effect on cytotoxicity induced by exposure to 1 Gy IR” value in the data set on HEK293 cells was “significantly enhances cytotoxicity”.
